# Tests used:
# [1] = molecular target: T1, Neutrophil elastase (Homo sapiens, UniProt P08246); assay: Ratio of Kreact to that of Kinact was determined on human leukocyte elastase(HLE)
# T1 sequence (P08246 whole entry): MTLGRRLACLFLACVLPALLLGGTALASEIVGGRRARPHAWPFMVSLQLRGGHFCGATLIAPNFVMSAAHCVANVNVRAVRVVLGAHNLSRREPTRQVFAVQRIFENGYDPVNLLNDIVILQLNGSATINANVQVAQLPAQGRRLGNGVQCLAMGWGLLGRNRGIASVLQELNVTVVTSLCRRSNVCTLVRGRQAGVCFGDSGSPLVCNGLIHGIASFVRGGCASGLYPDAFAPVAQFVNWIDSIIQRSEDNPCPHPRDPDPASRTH
# [2] = molecular target: T2, Neutrophil elastase (Homo sapiens) (UniProt P08246)
# T2 sequence (whole entry): T1 sequence (P08246 whole entry)
# Description: (§1) Compound was evaluated for the inhibitory activity against Human leukocyte elastase (HLE)
# [3] = molecular target: T2, Neutrophil elastase (Homo sapiens); remark: listed apart in the source
# Description: as §1
# [4] = molecular target: T1, Neutrophil elastase; assay: Observed binding affinity against Human leukocyte elastase (HLE)
# [5] = molecular target: T2, Neutrophil elastase (Homo sapiens); assay: Compound was evaluated for the inhibitory activity against Human leukocyte elastase
Ki [1],Kreact [2],K inact [3],Ki [4],K inact [5],Kreact [5],Compound
5 nM,–,–,–,–,–,O=C(OCN1C(=O)C2=C(CCC2)S1(=O)=O)c1c(Cl)cccc1Cl
100 nM,–,–,–,–,–,O=C(OCN1C(=O)C2=C(CCCCC2)S1(=O)=O)c1c(Cl)cccc1Cl
1 nM,1.8e-05 s⁻¹,18500 M⁻¹ s⁻¹,–,–,–,CC1(C)CCCC2=C1C(=O)N(COC(=O)c1c(Cl)cccc1Cl)S2(=O)=O
0.7 nM,5.8e-05 s⁻¹,83000 M⁻¹ s⁻¹,0.708 nM,–,–,CCC1CCCC2=C1C(=O)N(COC(=O)c1c(Cl)cccc1Cl)S2(=O)=O (stereo not drawn)
–,–,–,0.0708 nM,–,–,CCc1cccc2c1C(=O)N(COC(=O)c1c(Cl)cccc1Cl)S2(=O)=O
1 nM,1e-05 s⁻¹,10000 M⁻¹ s⁻¹,1 nM,–,–,CC(C)C1CCCC2=C1C(=O)N(COC(=O)c1c(Cl)cccc1Cl)S2(=O)=O (stereo not drawn)
–,2.7e-05 s⁻¹,900000 M⁻¹ s⁻¹,–,–,–,CC(C)c1cccc2c1C(=O)N(COC(=O)c1c(Cl)cccc1Cl)S2(=O)=O
1 nM,3.6e-05 s⁻¹,36000 M⁻¹ s⁻¹,1 nM,–,–,CC1CCCC2=C1C(=O)N(COC(=O)c1c(Cl)cccc1Cl)S2(=O)=O (stereo not drawn)
0.8 nM,–,–,–,–,–,O=C(OCN1C(=O)C2=C(C3CCC2C3)S1(=O)=O)c1c(Cl)cccc1Cl (stereo not drawn)
–,–,–,–,3300 M⁻¹ s⁻¹,5.9e-05 s⁻¹,O=C(OCN1C(=O)C2=C(CCCC2)S1(=O)=O)c1c(Cl)cccc1Cl

# From ChEMBL document CHEMBL1153647, “Inhibitors of human leukocyte elastase. 3.1 inhibition by tetrahydrobenzisothiazolinylmethyl aryl carboxylates” (Bioorg Med Chem Lett, 1995)
